Measured values from patent publication US20230292743A1, “Method for increasing the lifespan and motility of animal sperm using an inhibitor of Slo3 potassium channel” (IMV TECHNOLOGIES, priority 2017, published 2023).

Experiments:
[1] = system: bovine sperm; test: Ability of frozen-thawed bovine capacitated sperm to fertilize oocytes after 24 h incubation in sp-TALP (2-cell embryos, blastocysts); format: cell-based; details: 0.2 μM clofilium in sp-TALP 24 h prior fertilization, vs control 24 h
Description: Bovine sperm was obtained by ejaculation. Ejaculate was diluted 1:1 in Optixcell. After 10 minutes of 34° C. incubation, semen was then diluted to a final concentration of 57 million of spermatozoa/mL in Optixcell. Optixcell is a TRIS citrate buffer containing liposomes extruded from egg yolk lecithins, glycerol and antibiotics described by CEE (Directive 88/407/CEE). Diluted semen was slowly cooled down to 4° C. (3 to 4 h equilibration in a tempered water-bath), 0.25 mL straws were filled and then frozen in a controlled rate freezer at a cooling rate of 5° C./min from 4° C. to −10° C., 40° C./min from −10° C. to −110° C., 15° C./min from −110° C. to […]. Straws were then stored in liquid nitrogen until in vitro fertilization. Straws were thawed in a water-bath at 37° C. for 45 s. Each straw was wiped with 70° ethanol before being opened. […] Sperm concentration was measured and 750 000 sperm cells are injected into a fertilization droplet (500 μL) containing oocytes bathing in fertilization medium. […] Sperm (1.5 M/mL) and cumulus oocyte complexes (COCs) co-culture were performed at 38.5° C. under gaseous atmosphere of 5% v/v CO2 and saturated humidity for 48 h and then fertilization outcome was assessed. […] Cleavage rate assessed at 48 h and blastocyst rate at day 9 post-fertilization. […]

[2] = system: mouse sperm; test: Mouse sperm motility by CASA analysis (VCL) after 12 h capacitation; format: cell-based; details: 0.2 μM clofilium, 12 h capacitation in M16-BSA medium at 37° C., vs control
Description: 3. The viability of mouse sperm was determined by the measurement of the sperm motility. The motility analysis was performed using Computer Assisted Semen Analysis (CASA analysis). The CASA analysis was always performed in the examples using a CEROS™, Hamilton Thorne Bioscience, USA. VCL was thus measured. As known to the skilled person, VCL (for Curvilinear Velocity) is the average velocity of the sperm head through its real path. For this analysis, samples were diluted at 0.1 10^6/mL. The diluted sample was incubated for 12 hours at 37° C. in a capacitation medium of M16-BSA medium, with or without 0.2 μM clofilium. For the CASA measurement, 10 μL of the sample were placed on a 2X-CEL Slides, […], Leja Products B.V.,Netherlands, placed on the heating stage (37° C.) of the CEROS ™. A total of 10 automatically selected fields were analyzed.

## CCCCCCC[N+](CC)(CC)CCCCc1ccc(Cl)cc1 [clofilium]
[1]
  percentage of blastocysts vs matured oocytes 9 days after fertilization: improves the yield of bovine blastocysts
[2]
  motility of sperm (in terms of VCL): higher velocity than the “control”
